According to article PMC3038857, “Using Nuclear Receptor Activity to Stratify Hepatocarcinogens” (PLoS ONE, 2011):

What was measured:
LXRa (NR1H2) = experiment: NCGC_LXR_Agonist: GAL4 BLAM Reporter gene assay: LXRa; format: cell-based, human; settings: agonist mode; scale not given, looks like -log10 of molar active concentration; 0 = no activity
Procedure: These assays measure binding constants and enzyme inhibition values for nuclear receptors. The targets include [drawing 67] , [drawing 68] , [drawing 69] , [drawing 70] , [drawing 71] , [drawing 72] , [drawing 73] , [drawing 74] , [drawing 75] and [drawing 76] . Each of the nuclear receptor targets was measured in agonist mode. Assays were run at the NIH Chemical Genomics Center (Rockville, MD).
Cell-based HTS Assays: These assays measuring binding constants and enzyme inhibition values for nuclear receptors. The targets include AR, ER, FXR, LXR, PPARα, PPARδ, PPARγ, RXRα, RXRβ and PXR. Each of the nuclear receptor targets was measured in both agonist and antagonist mode, but the antagonist data is still undergoing analysis due to possible interference between cytotoxicity and assay activity, so antagonist mode data were not used in the present analysis. Assays were run at the NIH Chemical Genomics Center (Rockville, MD) as part of the Tox21 collaboration. […] The R^2 was required to be ≥0.5. Values where only the highest concentration exceeded 50% activity were excluded to eliminate weak or false positives. Detailed description of the methods, data and analysis methods for this dataset will be presented in a separate publication.

HMGCS2 = experiment: CLZD_HMGCS2: Change in expression of HMGCS2 (primary human hepatocytes); format: cell-based; settings: 24 hr, scale not given, looks like -log10 of molar active concentration, 0 = no activity
Procedure, shortened: (§1)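 Cultured primary human hepatocytes treated with chemicals for 6, 24 or 48 hr across five concentrations spanning 0.004-40 µM, then transcript level measured by quantitative nuclease protection in a multiplexed format.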

ERa (ESR1) = target: T1, ERa (ESR1) (Homo sapiens, UniProt P03372); experiment: NCGC_ERalpha_Antagonist: GAL4 BLAM Reporter gene assay: ERa; format: cell-based; settings: antagonist mode; scale not given, looks like -log10 of molar active concentration; 0 = no activity
T1 construct: expressed in transfected cells; host or cells: HEK293
T1 sequence (P03372 whole entry, the tested form may be a part): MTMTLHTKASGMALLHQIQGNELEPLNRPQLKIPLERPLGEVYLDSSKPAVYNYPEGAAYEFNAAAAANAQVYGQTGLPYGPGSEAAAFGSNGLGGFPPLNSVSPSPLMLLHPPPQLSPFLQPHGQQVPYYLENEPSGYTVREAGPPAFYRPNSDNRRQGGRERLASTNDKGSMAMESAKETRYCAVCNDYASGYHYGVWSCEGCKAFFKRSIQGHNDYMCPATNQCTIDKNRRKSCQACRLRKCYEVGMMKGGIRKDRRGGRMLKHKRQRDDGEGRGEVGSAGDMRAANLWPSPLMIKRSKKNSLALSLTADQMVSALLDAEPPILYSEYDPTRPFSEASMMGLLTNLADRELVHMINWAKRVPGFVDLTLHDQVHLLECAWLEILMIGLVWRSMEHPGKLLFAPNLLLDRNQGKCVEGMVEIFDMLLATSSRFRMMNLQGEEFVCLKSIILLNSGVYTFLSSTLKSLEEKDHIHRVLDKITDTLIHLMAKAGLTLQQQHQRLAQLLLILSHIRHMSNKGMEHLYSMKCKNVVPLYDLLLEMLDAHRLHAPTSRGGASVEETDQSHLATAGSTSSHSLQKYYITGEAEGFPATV

[1] = target: T2, AHR (aryl hydrocarbon receptor) (Homo sapiens, UniProt P35869); experiment: ATG_Ahr_CIS: Factorial reporter gene assay (multiplexed transcription reporter, HepG2); format: cell-based; design: scale not given here; settings: HepG2; scale not given, looks like -log10 of molar active concentration; 0 = no activity
T2 construct: endogenous in cells; host or cells: HepG2
T2 sequence (P35869 11-848): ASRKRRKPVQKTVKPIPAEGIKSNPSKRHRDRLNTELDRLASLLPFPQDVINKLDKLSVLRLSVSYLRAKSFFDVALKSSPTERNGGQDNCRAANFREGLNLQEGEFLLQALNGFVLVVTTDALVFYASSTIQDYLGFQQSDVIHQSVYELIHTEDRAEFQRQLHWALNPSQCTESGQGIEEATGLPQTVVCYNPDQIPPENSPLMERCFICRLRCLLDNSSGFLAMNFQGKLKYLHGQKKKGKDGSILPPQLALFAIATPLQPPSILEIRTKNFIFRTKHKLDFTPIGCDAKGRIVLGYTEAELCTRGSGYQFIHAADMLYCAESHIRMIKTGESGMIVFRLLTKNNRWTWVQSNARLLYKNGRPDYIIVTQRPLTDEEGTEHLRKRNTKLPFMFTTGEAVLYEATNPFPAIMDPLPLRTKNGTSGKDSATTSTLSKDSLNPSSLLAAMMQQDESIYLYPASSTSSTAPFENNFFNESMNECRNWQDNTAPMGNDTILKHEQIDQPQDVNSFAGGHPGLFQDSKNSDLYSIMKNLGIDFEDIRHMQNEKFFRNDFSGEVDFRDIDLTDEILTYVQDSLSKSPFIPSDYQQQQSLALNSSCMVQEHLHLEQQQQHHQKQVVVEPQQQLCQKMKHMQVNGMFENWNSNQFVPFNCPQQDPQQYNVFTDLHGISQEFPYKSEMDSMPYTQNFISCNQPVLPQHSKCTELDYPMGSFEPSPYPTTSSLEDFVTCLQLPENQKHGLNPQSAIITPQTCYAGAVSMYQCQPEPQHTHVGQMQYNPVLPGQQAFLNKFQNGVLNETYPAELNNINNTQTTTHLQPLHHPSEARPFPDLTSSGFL
Procedure, shortened: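 Seven concentrations per chemical, three-fold dilutions down from the MTC, were tested in HepG2 hepatoma cells. Those cells carried a multiple reporter transcription unit library, read either as cis transcription-factor-site reporters or as a trans mammalian one-hybrid panel for nuclear receptors.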

CYP1A2 = experiment: CLZD_CYP1A2: Change in expression of CYP1A2 (primary human hepatocytes); format: cell-based; settings: 24 hr, scale not given, looks like -log10 of molar active concentration, 0 = no activity
Procedure, shortened: as §1

COc1nc(C)nc(NC(=O)NS(=O)(=O)c2ccccc2Cl)n1 [r62]
0: NCGC_LXR_Agonist (LXRa (NR1H2)) | CLZD_HMGCS2_24 (HMGCS2) | NCGC_ERalpha_Antagonist (ERa (ESR1)) | ATG_Ahr_CIS [1] | CLZD_CYP1A2_24 (CYP1A2)

COc1nc(C)nc(NC(=O)NS(=O)(=O)c2ccccc2Cl)n1 [r63]
0: NCGC_LXR_Agonist (LXRa (NR1H2)) | CLZD_HMGCS2_24 (HMGCS2) | NCGC_ERalpha_Antagonist (ERa (ESR1)) | ATG_Ahr_CIS [1] | CLZD_CYP1A2_24 (CYP1A2)
